Entries after “also recorded” stand apart in the source; their conditions may differ.
Tests used:
wildtype (N2) C. elegans = experiment: Demographic analysis of age-specific mortality (Gompertz); type: in vivo, Caenorhabditis elegans; conditions: 50 μM ThT, p<0.001
Description: Data are presented as bends/min and represent the average of three independent experiments. *p<0.0001. e) Dose-response Kaplan-Meier survival curves of synchronously ageing hermaphrodite N2 populations exposed to 0 (control) to […], f) HBX and g) HBT at 20° C. (−) Control, (▪) 1 nM, ([…]) 10 μM, (▴) 100 μM, (▾) […]. Graphs are representative of three independent experiments.
Estimates of initial mortality rate and rate of increase with age and model fitting were made using WinModest. Gompertz mortality curves, ln(ux)=ln(a)+bx, where ux defines the age-specific hazard, were fitted with log-likelihood ratios used to examined the effects of constraining the intercept (a) or gradient (b) variables.

[1] = test system: HE250 [unc-52(e669su250)II]; experiment: Worm paralysis assay, unc-52 ts mutant; type: in vivo, Caenorhabditis elegans
CB1157 [unc-54(e1157)I] = experiment: Worm paralysis assay, unc-54 ts mutant; type: in vivo, Caenorhabditis elegans; conditions: restrictive temperature 25° C.
CW152 gas-1(fc21) X = experiment: Ethanol sensitivity of gas-1 ts mutant; type: in vivo, Caenorhabditis elegans; conditions: 0.4 M EtOH, after 3 days of treatment
ZZ26 unc-63(x26)I = conditions: 50 μM levamisole, after 3 days of treatment
Description: Scoring for paralysis was initiated 2 and 8 days after temperature upshift for CL4176 and AM140, respectively. […] For sensitivity to EtOH or levamisole resistance, CW152 gas-1 (fc21) X and ZZ26 unc-63(x26)I worms were picked into 0.4 M EtOH or 50 μM levamisole, respectively, equilibrated for 5 min, and scored for paralysis as described above. Treated and untreated worms were compared with an unpaired t-test (implemented in Prism 4, Graphpad™ Software, Inc., San Diego, Calif., USA).

[2] = biological target: Aβ3-42 aggregates in CL4176 (Homo sapiens, UniProt P05067); experiment: Aβ aggregation in vivo by immunohistochemistry; parameters: species or system Caenorhabditis elegans; conditions: CL4176, 50 μM ThT
Description: For immunofluorescence, N2, unc-He250 52(e669su250), CB1157 unc-54(e1157) or CL4176 dvIs27 [myo-3::Aβ(3 to 42)-let 3′UTR(pAF29); pRF4 (rol-6(su1006))] worms were treated for 24-36 h with or without 50 μM ThT at 25° C. After this period the worms were collected, rinsed, and fixed in 4% paraformaldehyde overnight. After fixation, worms were rinsed twice with 1 ml of 10 mM Tris-HCl pH 7.5 and then permeabilized by 24 h exposure to β-mercaptoethanol at 37° C. followed by collagenase treatment (2 mg/ml for 1-1.5 at 37° C.) to allow for digestion of the cuticle. Paramyosin and perlecans were detected with primary monoclonal antibodies 5-23 and MH3 (developed by Henry Epstein and Robert H. Waterston and obtained from the Developmental Studies Hybridoma Bank developed under the auspices of the NICHD and maintained by The University of Iowa, Department of Biology, Iowa City, Iowa 52242) and AlexaFluor 633 goat anti-mouse (Molecular Probes) as secondary antibody. Soluble oligomers and Aβ peptide were detected with anti polyclonal All (Invitrogen) and 6E10 monoclonal (Covance) primary antibodies, respectively, with AlexaFluor 568 goat anti-rabbit and AlexaFluor 488 goat anti-mouse (Molecular Probes) as secondary antibodies. Images were processed and quantified by using Image Analyst MK II (Novato, Calif.).

[3] = test system: aggregation-prone soluble oligomeric protein (A11 antibody) in CL4176; experiment: A11 immunolocalization of soluble oligomeric protein, CL4176; type: in vivo, Caenorhabditis elegans; conditions: CL4176, 50 μM ThT
Description: (§1) For fluorescent microscopy, TJ356 zIs356 IV [daf-16::daf-16-gfp+rol-6] or CF2189 Is001(skn-1::gfp+rol-6) were paralyzed with 1 mM levamisole mounted on 1% agarose pads and imaged using Olympus BX51 (60× objective) and HCImage software (Hamamatsu). For immunofluorescence, N2, […], CB1157 unc-54(e1157) or CL4176 dvIs27 [myo-3::Aβ(3 to 42)-let 3′UTR(pAF29); pRF4 (rol-6(su1006))] worms were treated for 24-36 h with or without 50 μM ThT at 25° C. After this period the worms were collected, rinsed, and fixed in 4% paraformaldehyde overnight. […] Paramyosin and perlecans were detected with primary monoclonal antibodies 5-23 and MH3 (developed by Henry Epstein and Robert H. Waterston and obtained from the Developmental Studies Hybridoma Bank developed under the auspices of the NICHD and maintained by The University of Iowa, Department of Biology, Iowa City, Iowa 52242) and AlexaFluor 633 goat anti-mouse (Molecular Probes) as secondary antibody. Soluble oligomers and Aβ peptide were detected with anti polyclonal All (Invitrogen) and 6E10 monoclonal (Covance) primary antibodies, respectively, with AlexaFluor 568 goat anti-rabbit and AlexaFluor 488 goat anti-mouse (Molecular Probes) as secondary antibodies. Images were processed and quantified by using Image Analyst MK II (Novato, Calif.).

[4] = test system: UNC-54 (paramyosin) in unc-54(e1157)I; experiment: Paramyosin immunolocalization / sarcomere structure; type: in vivo, Caenorhabditis elegans; conditions: 50 μM ThT, 24 h at 25° C.
Description: as §1

[5] = test system: DAF-16 fusion protein [TJ356 daf-16::daf-16-gfp]; experiment: DAF-16::GFP localization; type: in vivo, Caenorhabditis elegans; conditions: ThT or curcumin treatment, no heat shock
Description: as §1

unc-54 RNA = experiment: Real time quantitative PCR, unc-54; type: in vivo, Caenorhabditis elegans; conditions: 50 μM ThT, 3, 6 and 12 days of treatment
Description: Twelve single adults from control or 50 μM ThT populations were picked after 3, 6 and 12 days of treatment into 5 μl of distilled water and flash frozen until extraction. Individual worms were extracted using the RNeasy Micro Kit, TissueLyser and QIAcube (Qiagen). Using the manufacturer's standard Animal Tissue protocol, each sample was homogenized in buffer RLT/Bme (Qiagen) on the TissueLyser (6 min total at 20 Hz). Samples, reagents and columns were then loaded into the QIAcube robot, and processed using the “RNeasy Micro—Animal tissues and cells—DNase digest” program. Each sample was then eluted in 14 μl of Nuclease-free water. cDNA templates for the Real Time PCR reactions were made using a combination of Message Sensor RT kit (Ambion's) and TaqMan PreAmp Master Mix (Applied Biosystems). The entire worm sample was added to the RT reaction and reversed transcribed at 50° C. for 20 min, using Message Sensor's “Two Step RT-PCR Protocol” (sample RT's were randomized). Then 2.5 μl of the cDNA sample was pre-amplified with a “4×Multiplex Primer Mix” for 14 cycles using TaqMan PreAmp master mix and protocol (ABI). Two modifications were made to ABI's protocol: 1. the reaction volume was reduced to 10 μl and 2. after pre-amplification, each cDNA sample was diluted 1:5 with 1XTE Buffer (Promega). cDNA samples were stored at −20° C. until needed. […]

Aβ3-42 aggregates in CL4176, sequence (P05067 674-713): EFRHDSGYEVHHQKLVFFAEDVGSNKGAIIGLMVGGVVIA

Cc1ccc2c(c1)sc(-c1ccc(N(C)C)cc1)[n+]2C.[Cl-] [ThT, 4-(3,6-dimethyl-1,3-benzothiazol-3-ium-2-yl)-N,N-dimethylaniline chloride]
age-specific mortality (wildtype (N2) C. elegans): reduced age-specific mortality at all ages
paralysis phenotype, continuous exposure and addition after 18 h at restrictive temperature ([1]; HE250, 50 μM ThT, scored after 36 h at 25° C.): Prevention of paralysis phenotype
paralysis phenotype of unc-52 mutant ([1]; HE250, 25° C., 36 h, 50 μM ThT, 100 μM curcumin, 100 μM rifampicin): suppressed paralysis; also recorded: Protection
paralysis phenotype of unc-54 mutant (CB1157 [unc-54(e1157)I]): suppressed paralysis
ethanol sensitivity (CW152 gas-1(fc21) X): decreases the ethanol sensitivity
levamisole resistance (ZZ26 unc-63(x26)I): increases levimisole resistance
Aβ aggregate formation and muscle integrity [2]: reduced aggregate formation and preserved the muscle integrity
A11-positive oligomeric material [3]: significantly decreased
muscle sarcomere structure [4]: prevented the disruption of the muscle sarcomeres
DAF-16::GFP localization [5]: did not alter the normal localization
unc-54 RNA levels (unc-54 RNA): increases unc-54 RNA levels after 3, but not at 6 or 12 days of treatment

From US20110081428A1, “Use of thioflavin-like compounds to increase life span and/or health span” (priority 2009, published 2011)
